# Measured values as given in patent US20230257715A1, “COMPOSITIONS AND METHODS FOR REGULATING ENTEROENDOCRINE CELL DIFFERENTIATION AND USES THEREOF” (The Children's Medical Center Corporation, priority 2020, published 2023).
# Entries after “also recorded” stand apart in the source; their conditions may differ.
# Columns and labels:
# Type in all cases: cell-based
# human duodenal enteroids [1] = experiment: qPCR analysis of enteroendocrine and lineage markers in enteroids
# Source text: For differentiation, enteroids were passaged and grown in GM for two days, to allow for ISC expansion, after which the organoids were transitioned to tissue-specific differentiation media (DM) with additional small molecules added as described (TABLE 1A and TABLE 1B). Media was changed every two days, with Tubastatin A being removed after the second day of differentiation. Enteroids and rectoids were taken for analysis after 14 days.
# Total RNA was purified from individual wells using TRI®Reagent (Sigma) and the Direct-zol™ RNA kit (Zymo Research), following the manufacturer's protocol. RNA concentration was determined using a NanoDrop™ 1000 spectrophotometer (Life Technologies). RNA was treated with DNAse (Promega) and reverse transcribed using the High-Capacity cDNA Reverse Transcription Kit (Life Technologies). Gene expression analysis was then performed by Real Time quantitative PCR (qPCR) using a QuantStudio 6 Flex thermocycler (Life Technologies). Taqman primers from Life Technologies (TABLE 3) were used. 18S transcripts were used as the internal control and data were expressed using the 2^−ddCt method with Ct limit of 40. Fold change, unless otherwise stated, was compared to total RNA derived from adult whole mucosal tissue biopsies.
# human duodenal enteroids [2] = experiment: Flow cytometry of CHGA+ cells from enteroids
# Experimental: Organoids were incubated in Cell Recovery solution for 40-60 minutes at 4° C. to remove the Matrigel® and then centrifuged at 500×g for 5 minutes at 4° C. To achieve single cell suspension, organoids were then incubated in 500 μL of TrypLE™ Express (Thermo Fisher Scientific) at 37° C. for 30 minutes and broken up by repeated pipetting using a bent P1000 pipette tip. Each sample was then diluted in 800 μL of 20% FBS in Advanced DMEM/F12 and then centrifuged at 800×g for 5 minutes at 4° C. To mark dead cells, each sample was then incubated in DAPI (1:1000) diluted in 2% FBS/2 mM EDTA/calcium-free DMEM for 20 minutes at room temperature, then centrifuged at 800×g for 5 minutes at 4° C. and washed in 2% FBS/2 mM EDTA/DMEM. Cells were then incubated in 1% PFA for 15 minutes at room temperature, washed with 2% FBS/PBS and then permeabilized in 0.2% Tween 20 in 2% FBS/PBS for 15 minutes at 37° C. Following centrifugation, cells were resuspended in 0.1% Tween 20/2% FBS/2 mM EDTA in PBS with PE/Alexa Fluor 647-conjugated CHGA (BD Biosciences, 564563, 1:100) or PE/Alexa Fluor 647-conjugated mouse IgG1, K isotype, (BD Biosciences, 554680, 1:200) or with no antibody (the latter two acting as controls) for 30 minutes on ice. Cells were then washed in 0.1% Tween 20/2% FBS/2 mM EDTA in PBS, filtered through a 37-micron mesh, and then analyzed on a BD FACSAria II SORP flow cytometer. […]
# human duodenal enteroids [3] = experiment: Single cell RNA sequencing of enteroids (cell type proportions, module score, scVelo trajectory)
# Experimental: To better assess the transcriptomic distinctions between cells from the various culture conditions, single cell RNA sequencing (scRNA-seq) on the 10× platform combined with sample hashing was utilized, allowing the assessment of the reproducibility of the findings from distinct donors. Enteroids from three individuals were grown in G2D12, RSP or AS, for a total of nine samples. After the 14-day protocol, enteroids were isolated and processed into a single-cell suspension and their condition and patient source were marked using Hashtag antibodies prior to pooling the samples together (Stoeckius, M. et al. Genome Biol 19, 224, doi:10.1186/s13059-018-1603-1 (2018).)^47. After labeling, cells were processed, and single-cell transcriptomes were generated.
# Enteroids were incubated in Cell Recovery solution for 40-60 minutes at 4° C. to remove the Matrigel® and then centrifuged at 500×g for 5 minutes at 4° C. To achieve single cell suspension, organoids were then incubated in 500 μL of TrypLE™ Express at 37° C. for 30 minutes and broken up by repeated pipetting using a bent P1000 pipette tip. Each sample was then diluted in 800 μL of 20% FBS in Advanced DMEM/F12, filtered through 37 μm mesh, and then centrifuged at 300×g for 10 minutes at 4° C. Dead cells were then removed using magnetic-activated cell sorting (MACS) separation following the manufacturer's protocol. Briefly, each sample was resuspended in 100 μL Dead Cell Removal MicroBeads (Miltenyi Biotec) and incubated at room temperature for 15 minutes. 400 μL of 1×Binding Buffer was then added to each sample, after which the samples were applied to prepared MACS columns placed in a MACS Separator. Flow-through containing live cells was collected. This was followed by washing the columns four times with 1× Binding Buffer, which were combined with the initial flow-through. These samples were then centrifuged at 800×g for 5 minutes at 4° C.
# Single cells isolated after dead cell removal (see, Example 18) were labeled prior to sequencing with Totalseq™-B hashtag antibodies (Biolegend), targeted against CD298 and β2-microglobulin, per the manufacturer's protocol^47. Briefly, each of the nine samples (three separate differentiation conditions in three enteroid lines) were resuspended in 50 μL of Cell Staining Buffer (Biolegend) and blocked with […] of Human TruStain FcX^TM blocking reagent (Biolegend) for 10 minutes at 4° C. The supernatant was then removed, and each sample resuspended in 50 μL of Cell Staining Buffer containing […] of a unique Totalseq™-B hashtag antibody. Samples were incubated for 30 minutes at 4° C. and then washed three times in 3.5 mL of Cell Staining Buffer. The samples were then filtered through a 37 μm mesh, resuspended in 2% BSA in PBS at a concentration of 1500 cells/μL, and then pooled together. Of note, prior to the scRNA-seq experiment, antibody binding was verified using fluorophore-conjugated antibodies with the same binding specificity.
# A total of 180,000 cells as one pool were inputted across four channels, with a recovery rate of approximately 30,000 cells across all four channels. RNA libraries were prepared from single cells by the Single Cell Core at Harvard Medical School, Boston, Mass., using the 10× Chromium Single Cell 3′ Library Chip (V3.1) with dual indexed barcodes. Briefly, single cells were partitioned into Gel Beads in Emulsion (GEMs) by the Chromium Controller. […]
# human duodenal enteroids [4] = experiment: qPCR analysis of enteroendocrine and lineage markers in enteroids; settings: time-course of AS-treated enteroids, RNA every two days
# [5] = three enteroid lines, 14-day protocol
smiles,measurement,setting,value
"CCn1cc(C(=O)O)c(=O)c2c(N)c(F)c(NC3CCCCC3)cc21 [AS, AS1842856]",expression of the enterocyte marker ALP1 (qPCR),human duodenal enteroids [1]; compared to G14 and G2D12,reduced expression
same,other intestinal lineage marker mRNA expression (qPCR),human duodenal enteroids [1]; compared to G14 and G2D12,"increased expression of other secretory and ISC markers, including ATOH1, MUC2, LYZ, and LGR5"
same,EE marker mRNA expression (qPCR),"human duodenal enteroids [1]; compared to G14 and G2D12, referenced to whole mucosa, normalized to 18S","induced similar mRNA expression trends as Rim and SP (RSP); also recorded: upregulation of multiple EE markers (CHGA, PAX4, PDX1, NEUROD1, NEUROG3, SST and GIP), many to levels approximating whole mucosa"
same,"EE marker mRNA expression, direct comparison of protocols (qPCR)","human duodenal enteroids [1]; compared to RSP / AS alone, FIG. 5.1A and 5A","higher expression of CHGA, NEUROD1, NEUROG3, and SST"
same,"MUC2, ALP1 and LGR5 mRNA expression compared to those that received RSP alone","human duodenal enteroids [1]; qPCR, FIG. 7.1A",decreased expression of MUC2 and ALP1 and increased expression of LGR5
same,number of CHGA+ cells relative to the number seen with G2D12 alone,human duodenal enteroids [2],~50 times
same,"EE Cell Gene Module Score, effect size between culture conditions (Cohen's d)",human duodenal enteroids [3]; reference gene set from mouse EE cells,larger effect size than RSP
same,proportion of EE cells (scRNA-seq),human duodenal enteroids [3]; [5],18%
same,proportion of enterocytes (scRNA-seq),human duodenal enteroids [3]; [5],2.5%
same,proportion of goblet cells (scRNA-seq),human duodenal enteroids [3]; [5],1.5%
same,proportion of stem cells (scRNA-seq),human duodenal enteroids [3]; [5],42%
same,differentiation trajectory (scVelo RNA velocity),human duodenal enteroids [3]; vector field on UMAP,the majority of vectors moving towards the goblet cell cluster and then into the EE cluster
same,CHGA and SST transcript levels over time,human duodenal enteroids [4],detectable transcript levels by the sixth day of differentiation
same,NEUROD1 and NEUROG3 expression over time,human duodenal enteroids [4],showed increased expression around the fourth day of differentiation
